Converted amounts (≈) assume the structure as drawn. Blank lines part the entries; values can stand above or below the compound they belong to.
Assays:
[1] = test system: Pseudomonas fluorescens; assay: The compound was evaluated for antibacterial activity against Pseudomonas fluorescence at pH 5.5; type: functional
[2] = test system: Pseudomonas fluorescens; assay: The compound was evaluated for antibacterial activity against Pseudomonas fluorescence at pH 7.0; type: functional
[3] = test system: Pseudomonas fluorescens; assay: The compound was evaluated for antibacterial activity against Pseudomonas fluorescence at pH 8.0; type: functional
[4] = test system: Pseudomonas fluorescens; assay: The compound was evaluated for antibacterial activity against Pseudomonas fluorescence at pH 9.0; type: functional
[5] = test system: Aspergillus niger; assay: The compound was evaluated for antifungal activity against Aspergillus niger at pH 7.5; type: functional
[6] = test system: Escherichia coli; assay: The compound was evaluated for antibacterial activity against Escherichia coli at pH 7.0; type: functional
[7] = test system: Globisporangium ultimum; assay: The compound was evaluated for antifungal activity against the fungi Pythium ultimum; type: functional, organism-based
[8] = test system: Pseudomonas aeruginosa; assay: The compound was evaluated for antibacterial activity against Pseudomonas aeruginosa at pH 7.0; type: functional
[9] = test system: Pseudomonas fluorescens; assay: The compound was evaluated for antibacterial activity against the Pseudomonas fluorescence at pH 7.0; type: functional
[10] = test system: Staphylococcus aureus; assay: The compound was evaluated for antibacterial activity against Staphylococcus aureus at pH 7.0; type: functional
[11] = test system: Aureobasidium pullulans; assay: The compound was evaluated for antifungal activity against Aureobasidium pullulans at pH 7.5; type: functional
[12] = test system: Dolichospermum flos-aquae; assay: The compound was evaluated for antialgal activity against Anabaena flos-aquae; type: functional
[13] = test system: Auxenochlorella pyrenoidosa; assay: The compound was evaluated for antialgal activity against Chlorella pyrenoidosa; type: functional
[14] = test system: Aureobasidium pullulans; assay: The compound was evaluated for antifungal activity against Aureobasidium pullulans at pH 7.5 (end point 25 p.p.m. in separate test); type: functional
[15] = test system: Aspergillus niger; assay: The compound was evaluated for antifungal activity against Aspergillus niger at pH 7.5 (end point 0.25 p.p.m. in separate test); type: functional
[16] = test system: Amorphotheca resinae; assay: The compound was evaluated for antifungal activity against Cladosporium resinae at pH 7.5 (end point <0.25 p.p.m. in separate test); type: functional
[17] = test system: Chaetomium globosum; assay: The compound was evaluated for antifungal activity against Chaetomium globosum at pH 7.5 (end point <0.25 p.p.m. in separate test); type: functional
[18] = test system: Talaromyces funiculosus; assay: The compound was evaluated for antifungal activity against Penicillium funiculosum at pH 7.5 (end point 2.5 p.p.m. in separate test); type: functional
[19] = test system: Phytophthora capsici; assay: The compound was evaluated for antifungal activity against the fungi Phytophthora capsici; type: functional
[20] = test system: Pseudomonas fluorescens; assay: The compound was evaluated for antibacterial activity against Pseudomonas fluorescence at pH 4.0 in trypticase soy broth medium; type: functional
[21] = test system: Pseudomonas fluorescens; assay: The compound was evaluated for antibacterial activity against Pseudomonas fluorescence at pH 7.0 in trypticase soy broth medium; type: functional
[22] = test system: Pseudomonas fluorescens; assay: The compound was evaluated for antibacterial activity against Pseudomonas fluorescence at pH 9.0 in trypticase soy broth medium; type: functional
[23] = test system: Pseudomonas fluorescens; assay: The compound was evaluated for antifungal activity against Pseudomonas fluorescence in separate test(endopoint 0.25 p.p.m.) at pH 7.0; type: functional
[24] = test system: Staphylococcus aureus; assay: The compound was evaluated for antifungal activity against Staphylococcus aureus in separate test(endopoint 0.25 p.p.m.) at pH 7.0; type: functional
[25] = test system: Aureobasidium pullulans; assay: The compound was evaluated for antifungal activity against Aureobasidium pullulans at pH 7.5 (end point <0.25 p.p.m. in separate test); type: functional
[26] = test system: Amorphotheca resinae; assay: The compound was evaluated for antifungal activity against Cladosporium resinae at pH 7.5 (end point 2.5 p.p.m. in separate test); type: functional
[27] = test system: Pseudomonas fluorescens; assay: The compound was evaluated for antibacterial activity against Pseudomonas fluorescence at pH 4.0; type: functional
[28] = test system: Chaetomium globosum; assay: The compound was evaluated for antifungal activity against Chaetomium globosum at pH 7.5 (end point 2.5 p.p.m. in separate test); type: functional

Compound: O=C1c2ccccc2C(=O)c2c(NCC(Cl)CO)ccc(NCC(Cl)CO)c21 (stereo not given)
MIC [1]: > 100 µg/mL
MIC [2]: 25 µg/mL (≈ 59.1 µM)
MIC [3]: 50 µg/mL (≈ 118 µM)
MIC [4]: 50 µg/mL (≈ 118 µM)

Compound: Cn1sc(Cl)cc1=O.Cn1sccc1=O
MIC [12]: 0.1 µg/mL
MIC [13]: 0.3 µg/mL

Compound: O=C1c2ccccc2C(=O)c2c(NCC3CO3)ccc(NCC3CO3)c21 (stereo not given)
MIC [14]: 0.8 µg/mL (≈ 2.28 µM)
MIC [12]: < 2 µg/mL
MIC [15]: 0.4 µg/mL (≈ 1.14 µM)
MIC [13]: < 2 µg/mL
MIC [16]: 0.4 µg/mL (≈ 1.14 µM)
MIC [17]: 0.4 µg/mL (≈ 1.14 µM)
MIC [6]: 250 µg/mL (≈ 714 µM)
MIC [18]: 0.8 µg/mL (≈ 2.28 µM)
MIC [19]: 0.2 µg/mL (≈ 0.571 µM)
EC50 [7]: 0.03 p.p.m.
MIC [8]: 63 µg/mL (≈ 180 µM)
MIC [20]: 0.2 µg/mL (≈ 0.571 µM)
MIC [1]: 0.025 µg/mL (≈ 0.0714 µM)
MIC [2]: 0.05 µg/mL (≈ 0.143 µM)
MIC [21]: 0.2 µg/mL (≈ 0.571 µM)
MIC [3]: 0.05 µg/mL (≈ 0.143 µM)
MIC [4]: 0.05 µg/mL (≈ 0.143 µM)
MIC [22]: 0.2 µg/mL (≈ 0.571 µM)
MIC [9]: < 0.13 µg/mL
MIC [23]: 0.2 µg/mL (≈ 0.571 µM)
MIC [10]: < 0.13 µg/mL
MIC [24]: 0.2 µg/mL (≈ 0.571 µM)

Compound: CCCCNC(=O)OC#CCI
MIC [25]: 0.1 µg/mL (≈ 0.356 µM)
MIC [15]: 1.6 µg/mL (≈ 5.69 µM)
MIC [26]: 25 µg/mL (≈ 88.9 µM)
MIC [18]: 0.8 µg/mL (≈ 2.85 µM)
MIC [27]: 50 µg/mL (≈ 178 µM)
MIC [2]: 0.2 µg/mL (≈ 0.712 µM)
MIC [4]: 50 µg/mL (≈ 178 µM)
MIC [28]: 1.6 µg/mL (≈ 5.69 µM)

Compound: COCC(=O)N(c1c(C)cccc1C)C(C)C(=O)OC (stereo not given) [METALAXYL]
MIC [19]: 0.4 µg/mL (≈ 1.43 µM)
EC50 [7]: 0.017 p.p.m.

Second part, the compound after the results:

MIC [5]: > 250 µg/mL
MIC [6]: > 250 µg/mL
EC50 [7]: 3.6 p.p.m.
MIC [8]: > 250 µg/mL
MIC [9]: 4 µg/mL (≈ 11.4 µM)
MIC [10]: > 250 µg/mL
MIC [11]: > 250 µg/mL
Compound: O=C1c2ccccc2C(=O)c2c(OCC3CO3)ccc(OCC3CO3)c21 (stereo not given)

MIC [1]: 100 µg/mL (≈ 195 µM)
MIC [2]: 50 µg/mL (≈ 97.6 µM)
MIC [3]: 0.4 µg/mL (≈ 0.781 µM)
MIC [4]: 0.2 µg/mL (≈ 0.39 µM)
Compound: O=C1c2ccccc2C(=O)c2c(NCC(Br)CO)ccc(NCC(Br)CO)c21 (stereo not given)

MIC [9]: < 0.2 µg/mL
Compound: CCCCCCCCn1sc(Cl)c(Cl)c1=O

Source: ChEMBL document CHEMBL1129820, “1,4-Bis-(2,3-epoxypropylamino)-9,10-anthracenedione and related compounds as potent antifungal and antimicrobial agents” (Bioorg Med Chem Lett, 1997)
